Structures are written as SMILES. Where two headings read alike, the source gives them in different places.

These results are taken from patent publication US20230302010A1, “2-((4S)-6-(4-CHLOROPHENYL)-1-METHYL-4H-BENZO[C]ISOXAZOLO[4,5-E]AZEPIN-4-YL)ACETAMIDE FOR TREATING THROMBOCYTHEMIA” (Constellation Pharmaceuticals, Inc., priority 2020, published 2023).

Assay [1] concerns IL6 release from THP-1 acute leukemia cells. In words: IL6 release from lipopolysaccharide-treated THP-1 cells. Particulars: Homo sapiens; THP-1 cells exposed to lipopolysaccharide, then compound for 16 hours; read-out: IL6 release inhibition IC50. The format is cell-based. As for the experimental part:
Compound 1 was assessed for its ability to suppress the expression of NF-κB target genes in two experiments. In one experiment, THP-1 acute leukemia cell lines were exposed to lipopolysaccharide treatment and then Compound 1 for 16 hours. […] In the other experiment, the ability of Compound 1 to suppress both IL6 and IL10 expression in TMD8 ABC-DLBCL cells was investigated (data on file). TMD8 cells were incubated with DMSO or 1.6 μM Compound 1 for 6 or 24 hours. RNA was then extracted from the cells and quantified using qRT-PCR.

The test system of assay [2] is CD34+ cells isolated from healthy donor bone marrow. Kind of assay: Megakaryocyte differentiation of CD34+ cells (FACS, CD41a expression). The format is cell-based. As to conditions: 14 days, FACS (FIG. 2). How it is done:
The effects of Compound 1 on megakaryocyte differentiation and proliferation were evaluated using CD34+ cells isolated from healthy donor bone marrow (data on file). The CD34+ cells were grown in megakaryocyte differentiation serum-free stem cell differentiation base medium with a megakaryocyte-driving cytokine cocktail for 14 days with DMSO or Compound 1 at concentrations ranging from 3 nM to 500 nM. The cells were then stained for CD34 (progenitor marker), CD45 (leukocyte marker) and CD41a (mature megakaryocyte marker) and assessed by FACS for viability and marker expression. CD41a expression and cell size were used as markers of megakaryocyte differentiation. […] The shift from high to low CD41a expression began at approximately 50 nM, with pronounced effects observed at 200 to 500 nM, as shown in FIG. 2.

Assay [3] deals with patients with high-risk ET. As to conditions: cited from earlier work.

In general, IC50 refers to the concentration at which inhibition is half-maximal. Turning to `Cc1noc2c1-c1ccccc1C(c1ccc(Cl)cc1)=N[C@H]2CC(N)=O` [Compound 1, 2-((4S)-6-(4-chlorophenyl)-1-methyl-4H-benzo[c]isoxazolo[4,5-e]azepin-4-yl)acetamide], the IC50 in assay [1] was 69 nM. Besides, the “concentration at which shift from high to low CD41a expression began” value in assay [2] was “approximately 50 nM”.

Regarding `NC(=O)NO` [HU, hydroxyurea], the “survival from the beginning of treatment” value in assay [3] (14-year retrospective study, 166 high-risk ET patients) is 65%. In addition, the patients who died in assay [3] (166 high-risk ET patients treated for a median of 4.5 years, median follow-up of seven years from diagnosis) was 23%. In addition, the 10-year overall survival in assay [3] (patients who achieved a complete response) is 79%; in assay [3] (patients with HU resistance) it was 26%.
